Tests used:
[1] = tested on: TGF-β signalling (PAI-1 promoter-luciferase in HepG2 cells); assay: Cellular transcriptional assay: PAI-1 promoter firefly luciferase reporter in cells exposed to TGF-β; format: cell-based; conditions: 500 μM CPO in presence of TGF-β; relative to TGF-β only
Procedure: Assay 1 (Cellular Transcriptional Assay)
The assay was performed in HepG2 cells stably transfected with the PAI-1 promoter (known to be a strong TGF-β responsive promoter) linked to a luciferase (firefly) reporter gene. The compounds were selected on their ability to inhibit luciferase activity in cells exposed to TGF-β. In addition, cells were transfected with a second luciferase (Renilla) gene which was not driven by a TGF-β responsive promoter and was used as a toxicity control.
96 well microplates were seeded, using a multidrop apparatus, with the stably transfected cell line at a concentration of 35000 cells per well in 200 μl of serum-containing medium. These plates were placed in a cell incubator.
18 to 24 hours later (Day 2), cell-incubation procedure was launched. Cells were incubated with TGF-β and a candidate compound at concentrations in the range 50 nM to 10 μM (final concentration of DMSO 1%). The final concentration of TGF-β (rhTGFβ-1) used in the test was 1 ng/mL. Cells were incubated with a candidate compound 15-30 mins prior to the addition of TGF-β. The final volume of the test reaction was 150 μl. Each well contained only one candidate compound and its effect on the PAI-1 promoter was monitored.
Columns 11 and 12 were employed as controls. Column 11 contained 8 wells in which the cells were incubated in the presence of TGF-β, without a candidate compound. Column 11 was used to determine the ‘reference TGF-β induced firefly luciferase value’ against which values measured in the test wells (to quantify inhibitory activity) were compared. […]
12 to 18 hours later (day 3), the luciferase quantification procedure was launched. […] Following agitation (15 to 30 mins), luciferase activities of the plates were read in a dual-injector luminometer (BMG lumistar). For this purpose, 50 μl of luciferase assay reagent and 50 μl of ‘Stop & Glo’ buffer were injected sequentially to quantify the activities of both luciferases. […] For each of the compounds tested, a concentration response curve was constructed from which an IC50 value was determined graphically.

O=C1C=CCC1 [CPO, Cyclopentenone, reference compound]
firefly and renilla luciferase activities (toxicity control) [1]: around 50%

Cc1cccc(-c2n[nH]cc2-c2ccnc(-c3ccc(OCc4cn(C)cn4)cc3)c2)n1 [Example 1, 2-{4-[(1-methyl-1H-imidazol-4-yl)methoxy]phenyl}-4-[3-(6-methylpyridin-2-yl)-1H-pyrazol-4-yl]pyridine]
melting point: 191 °C

CCS(=O)(=O)c1ccc(-c2cc(-c3c[nH]nc3-c3cccc(C)n3)ccn2)cc1 [Example 2, 2-[4-(Ethylsulfonyl)phenyl]-4-[3-(6-methylpyridin-2-yl)-1H-pyrazol-4-yl]pyridine]
melting point: 244 °C

Cc1cccc(-c2n[nH]cc2-c2ccnc(-c3ccc(C#N)cc3)c2)n1 [Example 3]
melting point: 198 °C

Cc1cccc(-c2n[nH]cc2-c2ccnc(-c3ccc(OC(F)(F)F)cc3)c2)n1 [Example 4]
melting point: 131 °C

Cc1cccc(-c2n[nH]cc2-c2ccnc(-c3ccc(Cl)cc3)c2)n1 [Example 5]
melting point: 190 °C

Cc1cccc(-c2n[nH]cc2-c2ccnc(-c3ccc(S(C)(=O)=O)cc3)c2)n1 [Example 7]
melting point: 232 to 234 °C

Cc1cccc(-c2n[nH]cc2-c2ccnc(-c3ccc(C(=O)NC4CCOCC4)cc3)c2)n1 [Example 14, 4-{4-[3-(6-methylpyridin-2-yl)-1H-pyrazol-4-yl]pyridin-2-yl}-N-(tetrahydro-2H-pyran-4-yl)benzamide]
melting point: 148 °C

Cc1cccc(-c2cn[nH]c2-c2ccnc(-c3ccc(C(=O)NC4CCOCC4)cc3)c2)n1 [Example 18, 3-[2-(4-((tetrahydropyran-4-yl)aminocarbonyl)phenyl)pyridin-yl]-4-[6-methylpyridin-2-yl]-1H-pyrazole]
melting point: 170 °C

Cc1cccc(-c2c[nH]nc2-c2ccnc(-c3ccc(N4CCOCC4)cc3)c2)n1 [Example 20]
melting point: 210 °C

Cc1cccc(-c2c[nH]nc2-c2ccnc(-c3ccc(CN4CCOCC4)cc3)c2)n1 [Example 21]
melting point: 128 °C

COc1ccc(-c2cc(-c3c(-c4ccccn4)nc4ccccn34)ccn2)cc1 [Example 34, 3-[2-(4-methoxyphenyl)-pyridin-4-yl]-2-pyridin-2-yl-imidazo[1,2-a]pyridine]
melting point: 222 °C

Cc1cccc(-c2nc3ccccn3c2-c2ccnc(-c3ccc(NS(=O)(=O)C(F)(F)F)cc3)c2)n1 [Example 53, 2-(6-methyl-pyridin-2-yl)-3-{2-[4-(trifluoromethylsulfonylamino)phenyl]-pyridin-4-yl}-imidazo[1,2-a]pyridine]
melting point: 135 °C

c1ccc(-c2nc3ccccn3c2-c2ccnc(-c3ccc(N4CCOCC4)cc3)c2)nc1 [Example 54, 3-[2-(4-(morpholin-4-yl)-phenyl)-pyridin-4-yl]-2-pyridin-2-yl-imidazo[1,2-a]pyridine]
melting point: 145 °C

CN1CCN(c2ccc(-c3cc(-c4c(-c5ccccn5)nc5ccccn45)ccn3)cc2)CC1 [Example 55, 3-{2-[4-(4-methylpiperazin-1-yl)-phenyl]-pyridin-4-yl}-2-pyridin-2-yl-imidazo[1,2-a]pyridine]
melting point: 150 °C

Cc1cccc(-c2nc3ccccn3c2-c2ccnc(-c3ccc(CN4CCOCC4)cc3)c2)n1 [Example 56, 2-(6-methyl-pyridin-2-yl)-3-[2-(4-(morpholin-4-ylmethyl)phenyl)-pyridin-4-yl]-imidazo[1,2-a]pyridine]
melting point: 156 °C

Cc1cccc(-c2nc3ccccn3c2-c2ccnc(-c3ccc(C(=O)N4CCOCC4)cc3)c2)n1 [Example 66, 2-(6-methyl-pyridin-2-yl)-3-{2-[4-((morpholin-4-yl)carbonyl)phenyl]-pyridin-4-yl}-imidazo[1,2-a]pyridine]
melting point: 110 °C

COCCCNC(=O)c1ccc(-c2cc(-c3c(-c4cccc(C)n4)nc4ccccn34)ccn2)cc1 [Example 67, 2-(6-methyl-pyridin-2-yl)-3-{2-[4-((3-methoxypropylamino)carbonyl)phenyl]-pyridin-4-yl}-imidazo[1,2-a]pyridine]
melting point: 165 °C

Cc1ccn2c(-c3ccnc(-c4ccc(OCc5cn(C)cn5)cc4)c3)c(-c3cccc(C)n3)nc2c1 [Example 75, 7-methyl-2-(6-methyl-pyridin-2-yl)-3-{2-[4-((1-methyl-imidazol-4-yl)methyloxy)phenyl]-pyridin-4-yl}-imidazol[1,2-a]pyridine]
melting point: 217 °C

Cc1cccc(-c2nc3ccccn3c2-c2ccnc(-c3ccc(OCc4cn(C)cn4)cc3)c2)n1 [Example 76, 2-(6-methyl-pyridin-2-yl)-3-{2-[4-((1-methyl-imidazol-4-yl)methyloxy)phenyl]-pyridin-4-yl}-imidazo[1,2-a]pyridine]
melting point: 120 °C

Cc1ccn2c(-c3ccnc(-c4ccc(OCC(N)=O)cc4)c3)c(-c3cccc(C)n3)nc2c1 [Example 77, 7-methyl-2-(6-methyl-pyridin-2-yl)-3-{2-[4(aminocarbonylmethyloxy)phenyl]-pyridin-4-yl}-imidazo[1,2-a]pyridine]
melting point: 213 °C

Cc1cccc(-c2nc3c(C)cccn3c2-c2ccnc(-c3ccc(OCC(N)=O)cc3)c2)n1 [Example 78, 8-methyl-2-(6-methyl-pyridin-2-yl)-3-{2-[4-(aminocarbonylmethyloxyl)phenyl]-pyridin-4-yl}-imidazo[1,2-a]pyridine]
melting point: 183 °C

Cc1cccc(-c2nc3ccccn3c2-c2ccnc(-c3ccc(N4CCOCC4)cc3)c2)n1 [Example 79, 2-(6-methyl-pyridin-2-yl)-3-{2-[4-(morpholin-4-yl)phenyl]-pyridin-4yl}-imidazo[1,2-a]pyridine]
melting point: 190 °C

Cc1ccn2c(-c3ccnc(-c4ccc(N5CCOCC5)cc4)c3)c(-c3cccc(C)n3)nc2c1 [Example 80, 7-methyl-2-(6-methyl-pyridin-2-yl)-3-{2-[4-(morpholin-4-yl)phenyl]-pyridin-4-yl}-imidazo[1,2-a]pyridine]
melting point: 208 °C

Cc1cccc(-c2[nH]c(C(C)(C)C)nc2-c2ccnc(-c3ccc(C(=O)NC4CCOCC4)cc3)c2)n1 [Example 81]
melting point: 174 °C

Cc1cccc(-c2[nH]c(C(C)(C)C)nc2-c2ccnc(-c3ccc(CN(C)C)cc3)c2)n1 [Example 101, (4-{4-[2-tert-Butyl-5-(6-methyl-pyridin-2-yl)-1H-imidazol-4-yl]-pyridin-2-yl}-benzyl)-dimethyl-amine]
melting point: 187 °C

Cc1cccc(-c2[nH]c(C(C)(C)C)nc2-c2ccnc(-c3ccc(OCC(N)=O)cc3)c2)n1 [Example 107, 2-{4-[4-(2-tert-Butyl-5-{6-methyl}pyridin-2-yl-1H-imidazol-4-yl)-pyridin-2-yl]-phenoxy}-acetamide]
melting point: 210 °C

Cc1cccc(-c2[nH]c(C(C)(C)C)nc2-c2ccnc(-c3ccc(OCCN4CCCC4)cc3)c2)n1 [Example 108, 4-(2-tert-Butyl-5-{6-methyl}-pyridin-2-yl-1H-imidazol-4-yl)-2-[4-(2-pyrrolidin-1-yl-ethoxy)-phenyl]-pyridine]
melting point: 168 °C

Cn1cnc(COc2ccc(-c3cc(-c4nc(C(C)(C)C)[nH]c4-c4ccccn4)ccn3)cc2)c1 [Example 109, 4-(2-tert-Butyl-5-pyridin-2-yl-1H-imidazol-4-yl)-2-[4-(1-methyl-1H-imidazol4-ylmethoxy)-phenyl]-pyridine]
melting point: 156 °C

Nc1nc(-c2ccccn2)c(-c2ccnc(-c3ccc(N4CCOCC4)cc3)c2)s1 [Example 111]
melting point: 246 °C

Cc1cccc(-c2sc(N)nc2-c2ccnc(-c3ccc(Cl)cc3)c2)n1 [Example 125]
melting point: 222 °C

Cc1cccc(-c2sc(N)nc2-c2ccnc(-c3ccc(OC(F)(F)F)cc3)c2)n1 [Example 126]
melting point: 232 °C

CCS(=O)(=O)c1ccc(-c2cc(-c3nc(N)sc3-c3cccc(C)n3)ccn2)cc1 [Example 127]
melting point: 219 °C

Cc1cccc(-c2sc(N)nc2-c2ccnc(-c3ccc(CN4CCOCC4)cc3)c2)n1 [Example 131]
melting point: 236 °C

Cc1cccc(-c2sc(N)nc2-c2ccnc(-c3ccc(N4CCOCC4)cc3)c2)n1 [Example 132]
melting point: 246 °C

Cc1cccc(-c2sc(N)nc2-c2ccnc(-c3ccc(OCC(N)=O)cc3)c2)n1 [Example 134]
melting point: 191 °C

Cc1cccc(-c2sc(N)nc2-c2ccnc(-c3ccc(CN(C)C)cc3)c2)n1 [Example 137]
melting point: 210 °C

From US20050245520A1, “2-Phenylpyridin-4-yl derivatives as alk5 inhibitors” (priority 2002, published 2005)
